Source: article PMC8752633 (2022)

Columns and labels:
[1] = test system: Can preQ1-II riboswitch WT (RNA, riboswitch) UGUGGUUCGCAACCAUCCCACAUAAAAAAACUAG; test: X-ray crystallography, 2.60 Å; details: 80 mM K+ (KCl), 12 mM Na+ (NaCl), 2 mM hexammine cobalt(III); 40 mM sodium cacodylate pH 5.5, 30% MPD, 20 °C; folded with Mg2+
[2] = test system: Can preQ1-II riboswitch WT (RNA, riboswitch) UGUGGUUCGCAACCAUCCCACAUAAAAAAACUAG; test: ITC (PEAQ-ITC, single-sites model); details: 100 mM Na+ (NaCl), 4 mM Mg2+; 50 mM Na-HEPES pH 7.0, 25 °C; apparent; average over two cooperative sites
[3] = test system: Hin riboswitch WT (RNA, riboswitch) GUAGUUCGCAAACCUCCUACAAUAAAAAACUAG; test: ITC (PEAQ-ITC, single-sites model); details: 100 mM Na+ (NaCl), 4 mM Mg2+; 50 mM Na-HEPES pH 7.0, 25 °C; apparent; average over two cooperative sites
[4] = test system: Ngo riboswitch WT (RNA, riboswitch) CGCGGUUCGCAAACCUCCCGCGUUACCAAAACUAG; test: ITC (PEAQ-ITC, single-sites model); details: 100 mM Na+ (NaCl), 4 mM Mg2+; 50 mM Na-HEPES pH 7.0, 25 °C; apparent; average over two cooperative sites
[5] = test system: Can preQ1-II riboswitch C17U (RNA, riboswitch) UGUGGUUCGCAACCAUUCCACAUAAAAAAACUAG; test: ITC (VP-ITC, two interdependent non-equivalent sites model); details: 100 mM Na+ (NaCl), 4 mM Mg2+; 50 mM Na-HEPES pH 7.0, 25 °C; macroscopic, second binding event (KD1 3.13 µM)
[6] = test system: Can preQ1-II riboswitch C31U (RNA, riboswitch) UGUGGUUCGCAACCAUCCCACAUAAAAAAAUUAG; test: as above; details: 100 mM Na+ (NaCl), 4 mM Mg2+; 50 mM Na-HEPES pH 7.0, 25 °C; macroscopic, first binding event (KD2 10.26 µM)

`NCc1c[nH]c2nc(N)[nH]c(=O)c12` was tested, and the binding [1] was “yes”, the “KD, app” value [2] was 0.032 ± 0.002 µM and the “KD, app” value [3] was 0.0529 ± 0.0002 µM. For the same molecule, the “KD, app” value [4] was 0.0505 ± 0.0013 µM, the KD2 [5] was 1.30 µM and the KD1 [6] was 6.64 µM.
